Values quoted from earlier work as cited in publication PMC8198792, “Prediction of Anticancer Peptides with High Efficacy and Low Toxicity by Hybrid Model Based on 3D Structure of Peptides” (International Journal of Molecular Sciences, 2021).
Where two headings read alike, the source gives them in different places.

Test system: cancer cell lines
Parameters: method as in 6 sources, ref CancerPPD [45] and SATPdb ||| ref CancerPPD/SATPdb ||| ref CancerPPD, SATPdb, Swissprot (PDB) ||| ref CancerPPD/SATPdb/Swissprot(PDB) ||| ref CancerPPD / SATPdb ||| ...
Settings: cited from earlier work
Excerpt: Supplement ijms-22-05630-s001.zip/ACPs(seguence).xlsx, sheet "D1" | column: Activity || Supplement ijms-22-05630-s001.zip/ACPs(seguence).xlsx, sheet "D2" | column: Activity || Supplement ijms-22-05630-s001.zip/ACPs(seguence).xlsx, sheet "D3" | column: Activity || (+ 2 further places)

[1] = ACPs dataset D1, 1 = ACP (positive), 0 = non-ACP (negative), label taken from databases, ref CancerPPD [45] and SATPdb
[2] = ACPs dataset D4 (sheet "D4"), label 1 = ACP (CancerPPD ID), 0 = non-ACP (non-anticancer AMP, SATPdb ID), ref CancerPPD [45] and SATPdb
[3] = ACPs dataset D3 (supplement sheet "D3"), 1 = ACP, 0 = non-ACP, ref CancerPPD [45] and SATPdb
[4] = ACPs dataset D4 (sheet "D4"), label 1 = ACP, experimentally validated ACPs, ref CancerPPD [45] and SATPdb
[5] = ACPs dataset D5 (sheet "D5"), label 1 = ACP (positive set), sequences with CancerPPD/SATPdb ID, ref CancerPPD, SATPdb
[6] = ACPs dataset D3 (sheet "D3"), label 1 = ACP, 0 = non-ACP, ref CancerPPD/SATPdb
[7] = ACPs dataset D4 (sheet "D4"), label 1 = ACP, 0 = non-ACP, ref CancerPPD / SATPdb
[8] = ACPs dataset D5, sheet "D5", label 1 = ACP, 0 = non-ACP, ref CancerPPD [45] and SATPdb
[9] = ACPs dataset D5 (sheet "D5"), label 1 = ACP (positive set), 0 = non-ACP (negative set), ref CancerPPD [45] and SATPdb
[10] = ACPs dataset D1, label 1 = ACP, 0 = non-ACP (non-anticancer AMPs from SATPdb), ref CancerPPD/SATPdb
[11] = ACPs dataset sheet D2, 1 = ACP (CancerPPD/SATPdb ID), 0 = non-ACP (Swissprot/PDB ID), ref CancerPPD, SATPdb, Swissprot (PDB)
[12] = ACPs dataset D2 (supplement ACPs(seguence).xlsx, sheet D2), dataset label 1/0 (ACP / non-ACP), entries identified by Swissprot(PDB ID), ref CancerPPD/SATPdb/Swissprot(PDB)

Substance: AEVAPAPAAAAPAKAPKKKAAAKPKKAGPS [satpdb11318]
- Activity [1]: 0
- Activity [2]: 0

Substance: FKCRRWQWRMKKLGA [compound 1111]
- Activity [3]: 1
- Activity [4]: 1
- Activity [5]: 1

Substance: GVVDILKGAAKDLAGHLATKVMNKL [satpdb14637]
- Activity [6]: 0
- Activity [7]: 0
- Activity [8]: 0

Substance: GKWSKILGKLIR [compound 3644]
- Activity [3]: 1
- Activity [2]: 1
- Activity [9]: 1

Substance: RTCESPSNKFQGVCLNSQSCAKACPSEGFSGGRCSSLRCYCSKAC [satpdb13976]
- Activity [10]: 0
- Activity [2]: 0

Substance: TEWSACSKTCGMGISTRV [satpdb13253]
- Activity [1]: 1
- Activity [4]: 1
- Activity [5]: 1
- Activity [11]: 1

Substance: LRVRLASHLRKLRKRLLRDADDLQKRLAVY [compound 1665]
- Activity [1]: 1
- Activity [4]: 1
- Activity [5]: 1
- Activity [11]: 1

Substance: FLGMIPKLIKKLIKAFK [compound 3135]
- Activity [3]: 1
- Activity [4]: 1
- Activity [5]: 1

Substance: GLLDIVKKVVGAFGSL [compound 4414]
- Activity [1]: 1
- Activity [4]: 1
- Activity [5]: 1
- Activity [11]: 1

Substance: QLKKCWNNYVQGHCRKICRVNEVPEALCENGRYCCLNIKELEAC [satpdb10388]
- Activity [1]: 0
- Activity [2]: 0

Substance: NGREACLDPEAPMVQKIVQKMLKG [satpdb14027]
- Activity [1]: 1
- Activity [4]: 1
- Activity [5]: 1
- Activity [11]: 1

Substance: GIFSLIKGAAKLITKTVAKEAGKTGLELMACKVTNQC [satpdb12414]
- Activity [10]: 0
- Activity [2]: 0

Substance: GILNTIKSIASKLKRKAK [satpdb10259]
- Activity [1]: 0
- Activity [2]: 0

Substance: GWLPTFGKILRKAMQLGPKLIQPI [satpdb12473]
- Activity [10]: 0
- Activity [2]: 0

Substance: QPWSQCSATCGDGVRERRR [satpdb12468]
- Activity [1]: 1
- Activity [4]: 1
- Activity [5]: 1
- Activity [11]: 1

Substance: FKCRRWQWRMKKLGAPSITCVR [compound 1352]
- Activity [1]: 1
- Activity [4]: 1
- Activity [5]: 1
- Activity [11]: 1

Substance: GVPICGETCTLGTCYTAGCSCSWPVCTRN [compound 4421]
- Activity [1]: 1
- Activity [4]: 1
- Activity [5]: 1
- Activity [11]: 1

Substance: KRFKKFFKKLKNSVKKRVKKFFRKPRVIGVTFPF [satpdb10654]
- Activity [1]: 0
- Activity [2]: 0

Substance: QLGELIQQGGQKIVEKIQKIGQRIRDFFSNLRPRQEA [satpdb13050]
- Activity [10]: 0
- Activity [7]: 0

Substance: ALWKNMLKGIGKLAGQAALGAVKTLVGA [compound 1706]
- Activity [1]: 1
- Activity [4]: 1
- Activity [5]: 1
- Activity [11]: 1

Substance: LGQSAASAHHAYIVLAIENSFMTASKKK [compound 4207]
- Activity [1]: 1
- Activity [4]: 1
- Activity [5]: 1
- Activity [11]: 1

Substance: EIPSCESSASPDQSDSSVPPEE [satpdb17950]
- Activity [1]: 1
- Activity [4]: 1
- Activity [5]: 1
- Activity [11]: 1

Substance: YTMNPRKLFDY [satpdb15978]
- Activity [1]: 1
- Activity [4]: 1
- Activity [5]: 1
- Activity [11]: 1

Substance: PKLlKTFlSKWIG [satpdb12561]
- Activity [10]: 0
- Activity [2]: 0

Substance: GCVLYPWC [2M6C NMR - A 1-8]
- Activity [9]: 0
- Activity [11]: 0

Substance: ALLHHGLNCAKGVLA [satpdb12694]
- Activity [10]: 0
- Activity [2]: 0

Substance: RRPKGRGKRRREKQRPTDCHLCGDAVPRR [satpdb17014]
- Activity [1]: 1
- Activity [4]: 1
- Activity [5]: 1
- Activity [11]: 1

Substance: HFLLTLKNLAKKIL [satpdb10120]
- Activity [3]: 0
- Activity [7]: 0
- Activity [8]: 0

Substance: ILPWKWPWAPARR [satpdb12615]
- Activity [6]: 0
- Activity [7]: 0
- Activity [8]: 0

Substance: TAWGPCSTTCGLGMATRV [satpdb13892]
- Activity [1]: 1
- Activity [4]: 1
- Activity [5]: 1
- Activity [11]: 1

Substance: FFPIVGKLLFGLL [satpdb13027]
- Activity [6]: 0
- Activity [7]: 0
- Activity [8]: 0

Substance: GWKKWFNRAKKVGKTVGGLAVDHYLG [satpdb11446]
- Activity [10]: 0
- Activity [2]: 0

Substance: FAKKFAKKFKKFAKKFAKFAFAF [compound 1910]
- Activity [3]: 1
- Activity [4]: 1
- Activity [5]: 1

Substance: FISAIASFLGKFL [satpdb11448]
- Activity [10]: 0
- Activity [2]: 0

Substance: MEKVQYLTRSAIRRASTIEMPQQARQNLQNLFINFCLILICLLLICIIVMLL [1N7L NMR - A 1-52]
- Activity [12]: 0
- Activity [8]: 0

Substance: FLPAVLRVAAQVVPTVFCAISKKC [satpdb11368]
- Activity [1]: 0
- Activity [2]: 0

Substance: KWLRRVWRWWR [compound 1877]
- Activity [3]: 1
- Activity [2]: 1
- Activity [9]: 1

Substance: QCESGPCCRNCKFLKEGTICKRARGDDMDDYCNGKTCDCPRNPHKGPAT [1RO3 NMR - A 1-49]
- Activity [12]: 0
- Activity [9]: 0

Substance: PIEVNDDCMACEACVEICPDVFEMNEEGDKAVVINPDSDLDCVEEAIDSCPAEAIVRS [1F2G;1FXD X-ray 1.70 A 1-58]
- Activity [12]: 0
- Activity [8]: 0

Substance: GFGCPFNQYECHAHCSGVPGYKGGYCKGLFKQTCNCY [satpdb12844]
- Activity [10]: 0
- Activity [7]: 0

Substance: MPQLVPFYFMNQLTYGFLLMITLLILFSQFFLPMILRLYVSRLFISKL [6B2Z electron microscopy 3.60,A/L,1-48]
- Activity [12]: 0
- Activity [9]: 0

Substance: MNQGKIWTVVNPAIGIPALLGSVTVIAILVHLAILSHTTWFPAYWQGGVKKAA [1KZU X-ray 2.50 A/D/G 1-53]
- Activity [12]: 0
- Activity [8]: 0

Substance: TMPFLFCNVNDCNFASRNDYSYWL [satpdb12405]
- Activity [1]: 1
- Activity [4]: 1
- Activity [5]: 1
- Activity [11]: 1

Substance: ILPWKWPWWPWRR [compound 1827]
- Activity [1]: 1
- Activity [4]: 1
- Activity [5]: 1
- Activity [11]: 1

Substance: AWKKWAKAWKWAKAKWWAKAA [compound 4482]
- Activity [1]: 1
- Activity [4]: 1
- Activity [5]: 1
- Activity [11]: 1

Substance: SCASRCKGHCRARRCGYYVSVLYRGRCYCKCLRC [2EEM NMR - A 1-34]
- Activity [9]: 0
- Activity [11]: 0

Substance: GFGMALRLLRRVL [compound 3598]
- Activity [3]: 1
- Activity [2]: 1
- Activity [9]: 1

Substance: GVFGLLAKAALKGASKLIPHLLPSRQQ [satpdb12176]
- Activity [10]: 0
- Activity [2]: 0

Substance: GFHDHGPCDPPSHK [satpdb16441]
- Activity [1]: 1
- Activity [4]: 1
- Activity [5]: 1
- Activity [11]: 1

Substance: RGFRKHFNKLVKKVKHTISETAHVAKDTAVIAG [satpdb11665]
- Activity [3]: 0
- Activity [7]: 0
- Activity [8]: 0

Substance: RLYRRLYRRLYRRLYRRLYRRLYRRLYRRLYRKKKKKKK [satpdb14208]
- Activity [6]: 0
- Activity [7]: 0
- Activity [8]: 0

Substance: FVDLKKIANIINSIF [compound 2851]
- Activity [3]: 1
- Activity [2]: 1
- Activity [9]: 1

Substance: RCTCTTIISSSSTF [satpdb11144]
- Activity [1]: 0
- Activity [2]: 0

Substance: GIGKFLHSAKKFAKAFVAEIMNS [compound 1047]
- Activity [3]: 1
- Activity [2]: 1
- Activity [9]: 1

Substance: ILPFKFPFFPFRR [satpdb11203]
- Activity [1]: 0
- Activity [2]: 0

Substance: KWKLFKKIPLHLAKKF [compound 1139]
- Activity [3]: 1
- Activity [2]: 1
- Activity [9]: 1

Substance: GLFVGVLAKVAAHVVPAIAEHF [compound 4391]
- Activity [1]: 1
- Activity [4]: 1
- Activity [5]: 1
- Activity [11]: 1

Substance: SPPNQPSIMTFDYAKTNK [satpdb13153]
- Activity [10]: 0
- Activity [7]: 0

Substance: PDEDAINDALNKVCSTGRRQRSICKQLLKK [compound 3108]
- Activity [1]: 1
- Activity [4]: 1
- Activity [5]: 1
- Activity [11]: 1

Substance: KWKSFLKTFKSLKkTVLHTLLKAISS [compound 3760]
- Activity [3]: 1
- Activity [2]: 1
- Activity [9]: 1
